Assay results as given in publication PMC11945486, “TAS1R2/TAS1R3 Single-Nucleotide Polymorphisms Affect Sweet Taste Receptor Activation by Sweeteners: The SWEET Project” (Nutrients, 2025).
Like-named read-outs stand apart in the source and are kept apart here. No end group written: not given here.

B1: thaumatin (protein)
chain: ATFEIVNRCSYTVWAAASKGDAALDAGGRQLNSGESWTINVEPGTKGGKIWARTDCYFDDSGSGICKTGDCGGLLRCKRFGRPPTTLAEFSLNQYGKDYIDISNIKGFNVPMDFSPTTRGCRGVRCAADIVGQCPAKLKAPGGGCNDACTVFQTSEYCCTTGKCGPTEYSRFFKRLCPDAFSYVLDKPTTVTCPGSSNYRVTFCPTA
modifications: Eight disulfides
notes: sweet-tasting plant protein, E957

Molecular target: T1, human TAS1R2-WT/TAS1R3-L823F (Homo sapiens, UniProt Q7RTX0+Q8TE23, L823F)
T1 construct: expressed in transfected cells; host or cells: HEK293T stably expressing Gα16gust44
T1 sequence (Q8TE23 20-839): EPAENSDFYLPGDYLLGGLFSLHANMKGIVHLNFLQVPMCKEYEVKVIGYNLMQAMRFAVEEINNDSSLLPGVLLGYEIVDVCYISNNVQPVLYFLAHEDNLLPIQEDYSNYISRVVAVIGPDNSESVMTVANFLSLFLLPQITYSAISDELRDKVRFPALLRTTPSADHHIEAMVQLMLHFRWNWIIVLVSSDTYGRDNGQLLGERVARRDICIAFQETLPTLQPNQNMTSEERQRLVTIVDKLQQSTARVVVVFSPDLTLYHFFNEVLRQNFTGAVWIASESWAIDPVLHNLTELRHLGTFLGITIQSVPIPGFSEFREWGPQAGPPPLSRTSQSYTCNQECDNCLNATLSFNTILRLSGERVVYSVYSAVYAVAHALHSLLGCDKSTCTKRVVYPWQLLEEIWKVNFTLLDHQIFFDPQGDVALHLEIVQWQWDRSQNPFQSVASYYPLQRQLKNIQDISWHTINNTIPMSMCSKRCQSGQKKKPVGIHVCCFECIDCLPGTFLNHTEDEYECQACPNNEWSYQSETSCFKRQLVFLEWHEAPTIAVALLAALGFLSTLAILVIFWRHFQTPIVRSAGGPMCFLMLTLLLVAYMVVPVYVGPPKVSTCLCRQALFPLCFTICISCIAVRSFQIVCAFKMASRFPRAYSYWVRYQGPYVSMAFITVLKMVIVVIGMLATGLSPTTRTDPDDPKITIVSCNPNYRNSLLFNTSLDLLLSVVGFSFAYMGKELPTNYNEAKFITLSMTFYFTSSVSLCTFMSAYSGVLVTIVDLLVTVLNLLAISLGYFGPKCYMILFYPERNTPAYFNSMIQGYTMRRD
T1 sequence (Q7RTX0 21-852 L823F): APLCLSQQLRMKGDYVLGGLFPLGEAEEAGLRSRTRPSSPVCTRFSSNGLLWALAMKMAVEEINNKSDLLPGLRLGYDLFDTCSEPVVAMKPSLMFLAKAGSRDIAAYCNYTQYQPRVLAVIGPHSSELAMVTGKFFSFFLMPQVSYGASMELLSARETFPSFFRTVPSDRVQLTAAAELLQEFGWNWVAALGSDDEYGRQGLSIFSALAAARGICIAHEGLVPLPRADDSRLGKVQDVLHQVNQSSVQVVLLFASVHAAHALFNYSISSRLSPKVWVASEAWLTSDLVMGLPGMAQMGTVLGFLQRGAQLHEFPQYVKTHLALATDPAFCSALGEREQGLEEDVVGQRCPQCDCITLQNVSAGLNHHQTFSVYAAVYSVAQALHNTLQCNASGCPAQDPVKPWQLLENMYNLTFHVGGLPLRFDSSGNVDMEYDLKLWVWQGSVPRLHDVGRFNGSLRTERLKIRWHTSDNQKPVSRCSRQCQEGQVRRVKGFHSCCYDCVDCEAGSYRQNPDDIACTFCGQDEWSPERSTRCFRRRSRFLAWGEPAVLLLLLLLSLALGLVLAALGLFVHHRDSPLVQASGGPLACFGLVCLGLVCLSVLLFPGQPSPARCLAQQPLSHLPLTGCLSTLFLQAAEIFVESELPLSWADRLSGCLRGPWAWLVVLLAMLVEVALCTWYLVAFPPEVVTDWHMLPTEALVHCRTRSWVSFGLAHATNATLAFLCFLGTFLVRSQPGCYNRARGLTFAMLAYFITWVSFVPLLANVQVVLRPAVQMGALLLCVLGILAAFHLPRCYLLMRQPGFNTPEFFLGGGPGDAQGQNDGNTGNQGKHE
Assay: Calcium mobilisation assay, TAS1R2-WT with TAS1R3 variant L823F
Assay type: cell-based
Conditions: for Max ΔF/F0: maximal signal amplitude
Description: The coding sequences for TAS1R2 and TAS1R3 were commercially synthesised, and the human codon was optimised for expression in human cells. The coding sequences of human TAS1R2 and TAS1R3 were subcloned and inserted into the mammalian expression vectors pcDNA6/myc-HisA and pcDNA4/myc-HisA (Invitrogen; Thermo Fisher Scientific; Illkirch, France) between the EcoRI and NotI restriction sites, generating the plasmids pcDNA6-TAS1R2 and pcDNA4-TAS1R3, respectively. To increase protein expression in mammalian cells, an upstream start codon was used, which was a sequence called MAX, corresponding to the QBI SP163 element also described in pcDNA4-HisMax (Invitrogen; Thermo Fisher Scientific; Illkirch, France). To measure the expression level of the receptor by immunohistochemistry, we used the FLAG sequence ([…]) in the C-terminal position, which encodes the FLAG tag epitope. SNP variants of TAS1R2 and TAS1R3 were constructed based on […], respectively, using site-directed mutagenesis (Genewiz; Leipzig, Germany).
The HEK293T cells were kindly provided by Jay P. Slack (Givaudan Flavors Corporation; Cincinnati, OH, USA). HEK293T cells stably transfected with Gα16gust44 [43, 67] were seeded in poly-D-lysine-coated clear-bottom black 96-well plates (0.35 × 10^5 cells/well) in high-glucose DMEM supplemented with 2 mM GlutaMAX, 10% dialysed foetal bovine serum with penicillin/streptomycin and G418 (400 μg/mL) at 37 °C and 6.3% CO2 in a humidified atmosphere as previously reported. […] As a negative control, HEK293T cells were mock-transfected with the empty expression vector. After a further 24 h of incubation, the HEK293T cells were washed with C1 buffer (130 mM NaCl, 5 mM KCl, 10 mM HEPES pH 7.4 and 2 mM CaCl2). The 96-well plates containing the cells were then stimulated with sweet-tasting compounds. […] Different concentration ranges were tested depending on the sweet compound injected. The Ca^2+ changes were expressed as fractional changes in fluorescent light intensity: ΔF/F = (F − F0)/F0, where F was the fluorescent light intensity at each point, and F0 was the value of emitted fluorescent light prior to stimulus application. To calculate dose–response relationships, the changes in fluorescence upon stimulus application were averaged, mock-subtracted and baseline-corrected. The dose–response data obtained were adjusted using a 4-parameter logistic equation. The half-maximal effective concentrations (EC50 values) and maximal signal amplitudes were calculated using SigmaPlot software (version 15.0) (Systat Software; San Jose, CA, USA).
For in vitro calcium mobilisation assay performed on hTAS1R2-SNPs, hTAS1R3-SNPs and mTAS1R3-I60T, 6 to 7 concentrations were tested for each sweet compound, plus buffer alone. All concentration–receptor combinations were measured in duplicate, and each experiment was repeated at least 4 times (8 wells/concentration). Results were expressed for each concentration as ΔF/F mean ± SEM and represented as dose–response curves.

Molecule | R1 = Variant EC50/WT EC50 | Max ΔF/F0 | EC50 (read-out: EC50) [µM] | EC50 (brazzein) [µg/mL]
C=C(C)[C@@H]1CC=C(/C=N/O)CC1 [Perillartine, perillartine] | 0.7 | 1.39 ± 0.15 | 10 ± 3.1 | –
O=S(=O)(O)NC1CCCCC1 [Cyclamate, cyclamate] | – | – | 1370 ± 34 | –
C=C1C[C@@]23CC[C@H]4[C@@](C)(CCC[C@@]4(C)C(=O)O[C@@H]4O[C@H](CO)[C@@H](O)[C@H](O[C@@H]5O[C@H](CO)[C@@H](O)[C@H](O)[C@H]5O)[C@H]4O[C@@H]4O[C@H](CO)[C@@H](O)[C@H](O)[C@H]4O)[C@@H]2CC[C@]1(O[C@@H]1O[C@H](CO)[C@@H](O)[C@H](O[C@@H]2O[C@H](CO)[C@@H](O)[C@H](O)[C@H]2O)[C@H]1O[C@@H]1O[C@H](CO)[C@@H](O)[C@H](O)[C@H]1O)C3 [Rebaudioside M, rebaudioside M] | 0.8 | 1.35 ± 0.09 | 33.2 ± 5.4 | –
OC[C@H]1O[C@H](O[C@]2(CCl)O[C@H](CCl)[C@@H](O)[C@@H]2O)[C@H](O)[C@@H](O)[C@H]1Cl [Sucralose] | 1.2 | 0.84 ± 0.02 | 134 ± 8 | –
CC1=CC(=O)NS(=O)(=O)O1 [Acesulfame K, acesulfame K] | 0.6 | 0.33 ± 0.01 | 376 ± 34 | –
brazzein (QDKCKKVYENYPVSKCQLANQCNYDCKLDKHARSGECFYDEKRNLQCICDYCEY; ends and bridges not checked; cysteine pairing not given here; UniProt P56552 1-54, looked up) [sweet-tasting protein obtained by recombinant production using the yeast Pichia pastoris] | 0.7 | 0.98 ± 0.05 | – | 78.9 ± 14.2
thaumatin | 0.7 | 0.71 ± 0.04 | – | –
COC(=O)[C@H](Cc1ccccc1)NC(=O)[C@H](CC(=O)O)NCCC(C)(C)C [Neotame] | 0.9 | 0.76 ± 0.01 | 1.1 ± 0.06 | –
C[C@H](CC[C@@H](O[C@@H]1O[C@H](CO[C@@H]2O[C@H](CO)[C@@H](O)[C@H](O)[C@H]2O)[C@@H](O)[C@H](O)[C@H]1O[C@@H]1O[C@H](CO)[C@@H](O)[C@H](O)[C@H]1O)C(C)(C)O)[C@H]1CC[C@@]2(C)[C@@H]3CC=C4[C@@H](CC[C@H](O[C@@H]5O[C@H](CO[C@@H]6O[C@H](CO)[C@@H](O)[C@H](O)[C@H]6O)[C@@H](O)[C@H](O)[C@H]5O)C4(C)C)[C@]3(C)[C@H](O)C[C@]12C [Mogroside V, mogroside V] | 0.7 | 1.18 ± 0.04 | 22 ± 1.8 | –
COc1ccc(CCC(=O)c2c(O)cc(O[C@@H]3O[C@H](CO)[C@@H](O)[C@H](O)[C@H]3O[C@@H]3O[C@@H](C)[C@H](O)[C@@H](O)[C@H]3O)cc2O)cc1O [NHDC, neohesperidin dihydrochalcone] | 0.9 | 1.00 ± 0.01 | 43.1 ± 14.7 | –
B1 | – | – | 7.4 ± 1.1 | –
